This note sets out measurements from patent US11357814B2, “Application of Sarcococca vagans, Chinese medicinal ointment for treating skin disease, preparation method and application thereof” (priority 2017, dated 2022).

The test system of experiment [1] is capillary permeability of mouse abdominal cavities. The experiment is described as follows: Inhibition of capillary permeability of mouse abdominal cavities, Evans blue / glacial acetic acid (Effect Example 7). Type of experiment: in vivo, Kunming mice. The note with it: dexamethasone 9.9 ug/kg fed; 580 nm. An excerpt:
Test for Sarcococca […] effect of inhibiting capillary permeability. Roots of Sarcococca […] dried in the sun, and ground to powder for subsequent use. 1. […] 2. Test reagent: Sarcococca […] powder, dexamethasone acetate tablets (Zhejiang Xianju Pharmaceutical Co., Ltd., batch No. 120347), and glacial acetic acid and xylene were both analytically pure. 3. […] After the Sarcococca […] powder was sieved by 120 meshes, a suitable amount of the Sarcococca […] powder was taken and dissolved in a 0.5% sodium carboxymethylcellulose solution, to prepare high-dosage (0.30 g/ml), medium-dosage (0.15 g/ml), and low-dosage (0.075 g/ml) Sarcococca […] powder suspension. The dexamethasone acetate tablets were ground in the 0.5% sodium carboxymethylcellulose solution, to prepare 19.8 ug/ml suspension. […] For each group, the mice were fed twice each day for the first two days, fed once on the third day, after 30 min, the animals in each group were injected with Evans blue saline at 0.1 ml/10 g through tail vein, then were intraperitoneally injected with 0.9% glacial acetic acid, 40 min after the injection, each animal was killed by cervical dislocation, whose abdominal cavity was washed with saline, and a washing liquid was collected, to be adjusted to a volume of 7 ml, centrifuged at 3000 r/min for 5 min, and measured in absorbance at a 580 nm wavelength.

In experiment [2] the test system is xylene-induced mouse ear edema. The experiment is described as follows: Xylene-induced mouse ear edema (Effect Example 6). The experiment is classed as in vivo, Kunming mice. Conditions: dexamethasone 9.9 ug/kg fed. An excerpt: Influences of Sarcococca […] to xylene-induced mouse ear edema. Roots of Sarcococca […] dried in the sun, and ground to powder for subsequent use. 1. […] Test reagent: Sarcococca […] powder, dexamethasone acetate tablets (Zhejiang Xianju Pharmaceutical Co., Ltd., batch No. 120347), and glacial acetic acid and xylene were both analytically pure. 3. […] After the Sarcococca […] powder was sieved by 120 meshes, a suitable amount of the Sarcococca […] powder was taken and dissolved in a 0.5% sodium carboxymethylcellulose solution, to prepare high-dosage (0.30 g/ml), medium-dosage (0.15 g/ml), and low-dosage (0.075 g/ml) Sarcococca […] powder suspension. The dexamethasone acetate tablets were ground in the 0.5% sodium carboxymethylcellulose solution, to prepare 19.8 ug/ml suspension. […] For each group, the mice were fed twice each day for first two days, once on the third day, and after 30 min, 0.05 ml of xylene was applied to both front and back faces of right ear of each mouse in each group, while left ear was not coated with the medicine as control. 40 min after the coating, the mice were killed by cervical dislocation, the left and right ears were cut off, and ear slices at the same parts of the two ears were taken with a puncher and weighed. The difference between weights of the left and right ears is swelling degree. Each group was recorded, and t test was carried out among the groups. […]

In a further experiment the test system is allergic dermatitis. Kind of experiment: Clinical treatment of allergic skin diseases with ointment (Effect Example 2). Type of experiment: in vivo, human. The source says:
For the purpose of explaining application of the Chinese medicinal ointment provided in the present disclosure for treating allergic skin diseases, for example, treating dermatitis and eczema.
1. Subjects: 300 patients were collected clinically, with […] and 131 females, between 19 years old and 68 years old, all of whom suffered from allergic dermatitis.
2. Test grouping: the patients were randomly grouped into 3 groups, 100 patients in each group. The Chinese medicinal ointment prepared in Examples 1-9 was used for the test group, the Chinese medicinal ointment prepared in the comparative example was used for Control Group 1, and another commercially available ointment for treating dermatitis, e.g. Fluocinolone acetonide, was used for Control Group 2. For each patient, the corresponding ointment was applied on affected parts twice a day, for 1 month continuously.
(§1) 3. Criterion of therapeutic effect:
Cured: clinical symptoms completely disappear;
Total effective rate=(cured cases+effective cases)/total cases

Experiment [3] concerns tinea capitis, tinea corporis, tinea cruris or tinea of feet and hands. The experiment is described as follows: Clinical treatment of fungal skin diseases with ointment (Effect Example 3). Type of experiment: in vivo, human.
Text: For the purpose of explaining application of the Chinese medicinal ointment provided in the present disclosure for treating fungal skin diseases, for example, treating tinea capitis, tinea corporis, tinea cruris and tinea of feet and hands.
1. Subjects: 150 patients were collected clinically, with 101 males and 49 females, between 16 years old and 65 years old, all of whom suffered from tinea capitis, tinea corporis, tinea cruris or tinea of feet and hands.
2. Test grouping: the patients were randomly grouped into 3 groups, 50 patients in each group. The Chinese medicinal ointment prepared in Examples 1-9 was used for the test group, the Chinese medicinal ointment prepared in the comparative example was used for Control Group 1, and another commercially available ointment for treating tinea corporis, e.g. Ketoconazole, was used for Control Group 2. For each patient, the corresponding ointment was applied on affected parts twice a day, for 2 months continuously.
as §1
Cured: Fungi microscopic examination is negative, and tinea and pruritus completely disappear;
Effective: Fungi microscopic examination is negative, tinea substantially disappears, and pruritus is evidently alleviated;
Ineffective: Fungi microscopic examination is positive, and tinea and pruritus are not relieved. Total effective rate=(cured cases+effective cases)/total cases

Where [4] appears, read: cases of 50 patients per group, twice a day for 2 months.

Consider `CC(=O)OCC(=O)[C@@]1(O)[C@H](C)C[C@H]2[C@@H]3CCC4=CC(=O)C=C[C@]4(C)[C@@]3(F)[C@@H](O)C[C@@]21C` [Dexamethasone, dexamethasone acetate], for which the “Absorbance (A)” value in experiment [1] is given as 0.569 ± 0.238 ^. Besides, the “Swelling Degree” value in experiment [2] (40 min after xylene) was found to be 0.0101 ± 0.0034 g. The “Swelling Inhibition Rate” value in experiment [2] (vs normal group) is 20.0%.
Turning to `CC1(C)O[C@@H]2C[C@H]3[C@@H]4C[C@H](F)C5=CC(=O)C=C[C@]5(C)[C@@]4(F)[C@@H](O)C[C@]3(C)[C@]2(C(=O)CO)O1` [Fluocinolone acetonide], in the experiment on allergic dermatitis ((cured cases+effective cases)/total cases, twice a day for 1 month), the “Total Effective Rate” value is on record as 77%. In the experiment on allergic dermatitis (cases of 100 patients per group, applied twice a day for 1 month, clinical symptoms completely disappear), this compound registered a Cured of 40. This compound also showed an Ineffective with allergic dermatitis (cases of 100 patients per group, twice a day for 1 month) of 23. This compound also yielded an Effective with allergic dermatitis (cases of 100 patients per group, twice a day for 1 month, symptoms evidently improved) of 37.
In the case of `CC(=O)N1CCN(c2ccc(OCC3COC(Cn4ccnc4)(c4ccc(Cl)cc4Cl)O3)cc2)CC1` (centres unmarked) [Ketoconazole], the “Total Effective Rate” value in experiment [3] ((cured cases+effective cases)/total cases, twice a day for 2 months) is given as 74%. This compound also gave a Cured in experiment [3] (cases of 50 patients per group, applied twice a day for 2 months, fungi microscopic examination negative, tinea and pruritus completely disappear) of 16. In experiment [3] (setting [4]), this compound yielded an Effective of 21 and an Ineffective of 13.
